Patent publication US20200276273A1, “METHOD FOR TREATING MYELOID LEUKEMIA” (UNIVERSITY OF MIAMI, priority 2017, published 2020)
Blank lines part the entries; values can stand above or below the molecule they belong to. Starred links: 1 amine or outer side, 2 acyl side, 3 side chain; linkers in the order of their positions; H or OH if unused. Non-standard residues stand in square brackets, D forms with d. Residues, ends and D or L forms follow the SMILES beside them. *: point of attachment. Tyr(Me) = O-methyl-tyrosine, COc1ccc(C[C@H](N[*:1])C(=O)[*:2])cc1; Phe(F5) = N[C@@H](Cc1c(F)c(F)c(F)c(F)c1F)C(=O)O; hArg = N=C(N)NCCCC[C@H](N)C(=O)O; 12Ado = NCCCCCCCCCCCC(=O)O; Nle = CCCC[C@H](N)C(=O)O; Orn = NCCC[C@H](N)C(=O)O; Abu = CC[C@H](N)C(=O)O; PhAc = O=C(Cc1ccccc1)*

Legend:
[1] = nude mice, 10 μg B.i.d. s.c.
Excerpt: Eight-weeks-old female athymic nude mice (Hsd: Athymic Nude-Foxn1^nu), obtained from Harlan Laboratories, were housed in sterile cages in a temperature-controlled room with a 12-hours light\12-hours dark schedule. Mice were fed autoclaved chow and water ad libitum. Human myelogenous leukemia cells KG-1, KG-1a, K-562 and THP-1 were used in log phase of growth. Xenografts were initiated by subcutaneous (s.c.) injection of 1×10^7 cells into the right flank of nude mice. For each cell line, once tumor reached an appropriate size (approx. 40 mm3), mice were randomly divided into two groups of 15 animals each, which received s.c. injections twice a day into the left flank of, phosphate-buffered saline (PBS) ([…] containing 0.1% DMSO, or MIA-602 at a dose of 10 μg. […] At the end of the experiment, mice were sacrificed under carbon dioxide followed by cervical dislocation. All animal procedures were performed in compliance with the Guide for the Care and Use of Laboratory Animals published by the NIH, and approved by the Animal Care and Use Committee of the University of Miami.

[2] = test system: KG-1 cells; experiment: Cellular uptake of fluorescently labeled MIA-602; conditions: 2.5 μM Alexa Fluor 555 labelled peptide, 30 minutes
Experimental: For the detection of cellular uptake, MIA-602 was conjugated to Alexa Fluor 555 according to the manufacturer's instructions (Alexa Fluor 555 NHS ester, tris(triethylammonium salt, Life Technologies, Carlsbad, Calif.). Cells were incubated with 2.5 μM fluorescently labelled peptide or unconjugated fluorophore for 30 minutes (1×10^6 cells/tube). At the end of incubation, cells were washed 3 times in PBS, fixed in 4% paraformaldehyde, mounted, and imaged as described above. ImageJ software (NIH, Bethesda, Md.) was used to recolor the images, for the purpose of enhancing visual perception of cellular uptake.

[3] = test system: pituitary; conditions: biological activity on the pituitary; cited from earlier work
[4] = target: GHRH splice variant 1 receptor (human)
[5] = target: GHRH splice variant 1 receptor (human); remark: listed apart in the source
[6] = target: GHRH splice variant 1 receptor (human); remark: listed apart in the source
[7] = 30 days, treated animals vs those bearing no tumors

Molecule: CCCC[C@H](NC(=O)[C@@H](NC(=O)[C@H](CC(=O)O)NC(=O)[C@H](CCC(N)=O)NC(=O)[C@H](CC(C)C)NC(=O)[C@H](CC(C)C)NC(=O)[C@H](CCCN)NC(=O)[C@H](Cc1c[nH]cn1)NC(=O)[C@H](C)NC(=O)[C@H](CO)NC(=O)[C@H](CC(C)C)NC(=O)[C@H](CCC(N)=O)NC(=O)[C@H](CC)NC(=O)[C@H](CC(C)C)NC(=O)[C@@H](NC(=O)[C@H](CCCN)NC(=O)[C@H](Cc1c[nH]cn1)NC(=O)[C@H](Cc1ccc(OC)cc1)NC(=O)[C@H](CCCCNC(=N)N)NC(=O)[C@H](C)NC(=O)[C@@H](NC(=O)[C@H](Cc1c(F)c(F)c(F)c(F)c1F)NC(=O)[C@@H](NC(=O)[C@H](C)NC(=O)[C@H](CC(=O)O)NC(=O)[C@@H](CCCNC(=N)N)NC(=O)[C@H](Cc1ccc(O)cc1)NC(=O)CCCCCCCCCCCNC(=O)Cc1ccccc1)[C@@H](C)CC)[C@@H](C)O)C(C)C)[C@@H](C)CC)C(=O)N[C@H](CCCNC(=N)N)C(=O)N[C@@H](CCCCNC(=N)N)C(N)=O [MIA-602, [PhAc-Ada^0-Tyr^1, D-Arg^2, Fpa5^6, Ala^8, Har^9, Tyr(Me)^10, His^11, Orn^12, Abu^15, His^20, Orn^21, Nle^27, D-Arg^28, Har^29]hGH-RH(1-29)NH2] ({PhAc-12Ado}-Y[dR]DAI[Phe(F5)]TA[hArg]Y(Me)H[Orn]VL[Abu]QLSAH[Orn]LLQDI[Nle][dR][hArg]-NH2)
body weights [1, 7]: No significant differences
weights of various organs (liver, spleen, and kidneys) [1, 7]: No significant differences
macroscopic observation of organs ([1]; after treatment): no differences

Molecule: fluorescently labeled MIA-602: MIA-602 conjugated to Alexa Fluor 555 for the detection of cellular uptake ({PhAc-12Ado}-Y[dR]DAI[Phe(F5)]TA[hArg][Tyr(Me)]H[Orn]VL[Abu]QLSAH[Orn]LLQDI[Nle][dR][hArg]-NH2; also: Alexa Fluor 555 conjugated via NHS ester, site not given here)
cellular uptake [2]: not observed

Molecule: Tyr-Ala-Asp-Ala-Ile^5-Phe-Thr-Asn-Ser-Tyr^10-Arg-Lys-Val-Leu-Gly^15-Gln-Leu-Ser-Ala-Arg^20-Lys-Leu-Leu-Gln-Asp^25-Ile-Met-Ser-Arg^29-NH2 [GHRH(1-29)]
potency retained relative to native GHRH [3]: ≥ 50%

reduction in cell proliferation (cell count, 5 µM MIA-602, 24 and 48 hours) [4]: 80%
decrease of phosphorylation of Akt (Western blot, 8 h incubation with MIA-602) [6]: 85%
Molecule: {PhAc-12Ado}-Y[dR]DAI[Phe(F5)]TA[hArg][Tyr(Me)]H[Orn]VL[Abu]QLSAH[Orn]LLQDI[Nle][dR][hArg]-NH2
fold-change in expression of cell death-related genes (qPCR array, 24 h MIA-602) [5]: 28.9 fold
